Measurements: the NIST ThermoML archive (doi:10.1021/je500389t)

Assay: xn = mol fraction of the nth substance listed
Conditions: 101 kPa, Liquid; for viscosity: Capillary tube (Ostwald / Ubbelohde) method; for mass density: Pycnometric method

COCCOCCOC [2,5,8-trioxanonane] + O
Conditions	mass density, 293.15 K [kg/m3]	mass density, 298.15 K [kg/m3]	mass density, 303.15 K [kg/m3]	mass density, 308.15 K [kg/m3]	mass density, 313.15 K [kg/m3]	viscosity, 293.15 K [mPa·s]	viscosity, 298.15 K [mPa·s]	viscosity, 303.15 K [mPa·s]	viscosity, 308.15 K [mPa·s]	viscosity, 313.15 K [mPa·s]
x1 = 0.0147	1000.9	998.8	997.5	995.3	994.3	1.39	1.22	1.06	0.939	0.865
x1 = 0.0325	1004.6	1002.7	1000.2	998.1	995.2	1.9	1.66	1.41	1.23	1.09
x1 = 0.0548	1008.4	1005.5	1002.4	999.6	995.9	2.56	2.2	1.82	1.576	1.41
x1 = 0.0822	1010.3	1006.8	1003.1	999.7	995.8	3.21	2.73	2.22	1.91	1.7
x1 = 0.1183	1009.2	1004.8	1000.3	996.5	992.1	3.65	3.1	2.51	2.13	1.88
x1 = 0.1676	1003.2	998.7	994.1	990.1	985.4	3.63	3.09	2.53	2.14	1.9
x1 = 0.2384	993.6	988.3	983.9	979.3	974.5	3.12	2.7	2.24	1.92	1.72
x1 = 0.2866	987.3	982	977.5	973.2	968	2.75	2.42	2.01	1.75	1.58
x1 = 0.3468	980.1	974.9	970.4	965.6	960.8	2.36	2.1	1.77	1.5	1.42
x1 = 0.4495	970.7	965.4	960.9	956.2	951.1	1.97	1.77	1.47	1.31	1.21
x1 = 0.5426	963.6	958.5	953.8	949.2	943.8	1.61	1.47	1.27	1.14	1.06
x1 = 0.699	955.5	950.2	945.4	941	935.7	1.32	1.2	1.08	1	0.941
x1 = 0.7996	951.2	945.9	941.2	936.4	931.4	1.21	1.11	0.997	0.902	0.851
x1 = 0.8928	948.3	942.9	938.1	933.3	928.2	1.14	1.05	0.955	0.862	0.817
x1 = 1	945.2	939.8	935	930.7	925.4	1.09	0.998	0.914	0.834	0.785
